{"source": "patent US11040038B2", "about": "“Methods for treating diseases associated with abnormal ACVR1 expression and ACVR1 inhibitors for use in the same” (Sumitomo Dainippon Pharma Oncology, Inc., priority 2018, dated 2021)", "key": {"[1]": {"tested_on": "hepcidin expression in HepG2 cells", "assay": "Inhibition of hepcidin expression in HepG2 cells (qPCR)", "type": "cell-based", "settings": "Homo sapiens", "protocol": "To evaluate the in vitro efficacy of Compound 2, HepG2 cells were stimulated with the ALK2 ligand BMP-2 in the presence or absence of various concentrations of Compound 2 and the resulting levels of hepcidin expression were measured by qPCR. The results shown in FIG. 2A, reveal a strong, dose responsive inhibition of hepcidin transcription by Compound 2 (EC50<1 nM). Effects on basal hepcidin transcription were also measured (in the absence of BMP-2 stimulation) and the results are shown in FIG. 2B. Under these experimental conditions, Compound 2 inhibited hepcidin expression in a dose responsive manner (IC50˜100 nM)."}, "[2]": {"tested_on": "SMAD1/5 phosphorylation in BMP2 stimulated HepG2 cells", "assay": "Inhibition of SMAD1/5 phosphorylation in BMP2 stimulated HepG2 cells", "type": "cell-based", "settings": "Homo sapiens; HepG2 cells stimulated with BMP2", "source_text": "SMAD proteins are transcription factors involved in signaling downstream of TGFβ receptors. The TGFβ receptor ALK2 phosphorylates SMADs when activated by bone morphogenic proteins such as BMP2, which leads to SMAD nuclear translocation, transcriptional initiation and increased expression of genes like HAMP which codes for the peptide hormone hepcidin. Therefore, compounds that target ALK2 should inhibit BMP induced SMAD phosphorylation. In order to evaluate the in vitro potency of Compound 2, HepG2 cells were stimulated with the ALK2 ligand BMP2 in the presence or absence of various concentrations of Compound 2."}, "[3]": {"target": "T1, ACVR1 R206H (Homo sapiens, UniProt Q04771, R206H)", "T1 sequence (Q04771 21-509 R206H)": "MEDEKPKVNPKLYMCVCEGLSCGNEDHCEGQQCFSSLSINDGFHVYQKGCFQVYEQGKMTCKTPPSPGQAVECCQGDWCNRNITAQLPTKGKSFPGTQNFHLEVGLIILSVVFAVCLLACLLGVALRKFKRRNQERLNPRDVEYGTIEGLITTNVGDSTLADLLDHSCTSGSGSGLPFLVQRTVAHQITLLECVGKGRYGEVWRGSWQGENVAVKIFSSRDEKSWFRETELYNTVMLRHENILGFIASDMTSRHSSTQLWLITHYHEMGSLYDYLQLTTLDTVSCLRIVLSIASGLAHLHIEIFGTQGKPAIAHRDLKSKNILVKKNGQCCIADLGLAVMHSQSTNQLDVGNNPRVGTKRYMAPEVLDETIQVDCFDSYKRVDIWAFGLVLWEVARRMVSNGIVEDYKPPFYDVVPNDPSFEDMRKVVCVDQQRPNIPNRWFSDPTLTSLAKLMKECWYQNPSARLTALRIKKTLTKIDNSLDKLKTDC", "assay": "ACVR1 kinase assay, casein substrate, 33P-ATP, filter binding", "type": "biochemical", "settings": "10 μM ATP", "protocol": "(§1) In brief, casein-based substrates were prepared. The respective ACVR1 kinase was added to the substrate mixture and hot/cold 33P-ATP (10 μM) was added to initiate the reaction. The activity was then measured with a filter binding method.\n(§2) The IC50 values against the kinases are listed below in Table 3."}, "[4]": {"target": "T2, ACVR1 Wild Type (Homo sapiens, UniProt Q04771)", "T2 sequence (Q04771 21-509)": "T1 sequence (Q04771 21-509 R206H) with H186R", "assay": "ACVR1 kinase assay, casein substrate, 33P-ATP, filter binding", "type": "biochemical", "settings": "10 μM ATP", "protocol": "as §1, §2"}, "[5]": {"target": "T3, ACVR1 R258G (Homo sapiens, UniProt Q04771, R258G)", "T3 sequence (Q04771 21-509 R258G)": "T1 sequence (Q04771 21-509 R206H) with H186R, R238G", "assay": "ACVR1 kinase assay, casein substrate, 33P-ATP, filter binding", "type": "biochemical", "settings": "10 μM ATP", "protocol": "as §1, §2"}, "[6]": {"target": "T4, ACVR1 G328V (Homo sapiens, UniProt Q04771, G328V)", "T4 sequence (Q04771 21-509 G328V)": "T1 sequence (Q04771 21-509 R206H) with H186R, G308V", "assay": "ACVR1 kinase assay, casein substrate, 33P-ATP, filter binding", "type": "biochemical", "settings": "10 μM ATP", "protocol": "as §1, §2"}}, "note": "Substitutions are numbered along the chain they refer to.", "data": [{"smiles": "COc1cc(Nc2nccc(Nc3cccnc3-c3ccccn3)n2)ccc1N1CCN(C)CC1", "note": "[Compound 2, N^4-(2,2′-bipyridin-3-yl)-N^2-(3-methoxy-4-(4-methylpiperazin-1-yl)phenyl)pyrimidine-2,4-diamine]", "values": [{"measurement": "EC50", "setting": "[1]; BMP-2 stimulation, qPCR, read-out: EC50, inhibition of hepcidin transcription", "result": "< 1", "unit": "nM"}, {"measurement": "IC50", "setting": "[1]; absence of BMP-2 stimulation, read-out: IC50, inhibition of basal hepcidin expression", "result": "~100", "unit": "nM"}, {"measurement": "EC50", "setting": "[2]", "result": 162, "unit": "nM"}, {"measurement": "IC50", "setting": "[3]", "result": 3.8, "unit": "nM"}, {"measurement": "IC50", "setting": "[4]", "result": 4.5, "unit": "nM"}, {"measurement": "IC50", "setting": "[5]", "result": 51.6, "unit": "nM"}, {"measurement": "IC50", "setting": "[6]", "result": 13.8, "unit": "nM"}]}]}
